Reference: article PMC12084609, “Structural insights into small-molecule agonist recognition and activation of complement receptor C3aR” (The EMBO Journal, 2025)
Numbering of substitutions follows the chain as printed. Several values for one entry are separate records, joined by “and”; a condition that tells them apart may be missing. Identical values can stand only once.

Assays:
C3aR L82^2.64A = biological target: T1, C3aR L82^2.64A (Homo sapiens, UniProt Q16581, L82A); assay: GloSensor-based cAMP assay, C3aR mutant L82A; format: cell-based
T1 construct: expressed in transfected cells; host or cells: HEK293T
T1 sequence (Q16581 1-482 L82A): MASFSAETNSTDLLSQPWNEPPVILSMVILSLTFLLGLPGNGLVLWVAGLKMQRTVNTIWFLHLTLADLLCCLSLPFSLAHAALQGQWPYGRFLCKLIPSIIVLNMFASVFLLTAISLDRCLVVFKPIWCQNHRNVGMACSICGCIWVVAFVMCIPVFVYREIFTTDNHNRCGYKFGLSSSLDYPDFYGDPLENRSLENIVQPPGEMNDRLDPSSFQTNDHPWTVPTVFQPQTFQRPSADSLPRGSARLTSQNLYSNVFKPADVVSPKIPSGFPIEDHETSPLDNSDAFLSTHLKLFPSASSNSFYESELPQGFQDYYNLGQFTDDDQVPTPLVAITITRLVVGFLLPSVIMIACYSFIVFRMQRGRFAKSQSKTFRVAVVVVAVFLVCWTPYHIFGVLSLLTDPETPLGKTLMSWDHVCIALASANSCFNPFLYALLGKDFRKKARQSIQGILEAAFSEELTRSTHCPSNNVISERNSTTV
Method: (§1) HEK293T cells were seeded on 6-well plates (NEST) and transfected with pGlosensor™-22F plasmids (Promega) and pcDNA3.1 plasmids encoding C3aR or its mutants an with N-terminal FLAG tag. After 48 h, cells were detached with Accutase solution (Sigma-Aldrich) and washed with PBS, and resuspended in assay buffer (CO2-independent medium with 0.5 mg mL^−1D-luciferin). 100,000–200,000 cells were seeded on 96-well white bottom plates (SPL) and incubated at 37 °C for 45 min followed by 45 min incubation at room temperature. After 90 min of incubation, basal luminescence signals were recorded. In total, 25 μl of test ligand with various concentrations and 1 μM Forskolin (Sigma-Aldrich) were treated to the cells and luminescence signals were measured by Tristar 2 LB 942 multimode reader (Berthold). […] Relative luminescence unit (%) was calculated with the signal of wells treated with vehicle as 0% and the signal of wells treated with 1 μM Forskolin as 100% (DiRaddo et al, [2014]). Nonlinear regression was performed using a three-parameter logistic equation.

C3aR R161^ECL2A = biological target: T2, C3aR R161^ECL2A (Homo sapiens, UniProt Q16581, R161A); assay: GloSensor-based cAMP assay, C3aR mutant R161A; format: cell-based
T2 construct: expressed in transfected cells; host or cells: HEK293T
T2 sequence (Q16581 1-482 R161A): T1 sequence (Q16581 1-482 L82A) with A82L, R161A
Method: as §1

C3aR R340^5.42A = biological target: T3, C3aR R340^5.42A (Homo sapiens, UniProt Q16581, R340A); assay: GloSensor-based cAMP assay, C3aR mutant R340A; format: cell-based
T3 construct: expressed in transfected cells; host or cells: HEK293T
T3 sequence (Q16581 1-482 R340A): T1 sequence (Q16581 1-482 L82A) with A82L, R340A
Method: as §1

C3aR [1] = biological target: C3aR (Homo sapiens, UniProt Q16581); set-up: method as in Rowley et al, 2020; settings: inhibition of C3a-induced calcium release and mast cell degranulation; ref Rowley et al, 2020; cited from earlier work
C3aR [2] = tested on: C3aR; set-up: method as in Luo et al, 2025; settings: HEK293 cells; ref Luo et al, 2025; cited from earlier work
C3aR [3] = tested on: C3aR; set-up: method as in Mathieu et al, 2005; Rodriguez et al, 2024; settings: blockade of calcium influx attributed to β-arrestin mediated internalization; ref Mathieu et al, 2005; Rodriguez et al, 2024; cited from earlier work
[4] = Dunnett's multiple comparisons test, WT minus mutant

C3aR (Homo sapiens, UniProt Q16581), sequence (Q16581 whole entry): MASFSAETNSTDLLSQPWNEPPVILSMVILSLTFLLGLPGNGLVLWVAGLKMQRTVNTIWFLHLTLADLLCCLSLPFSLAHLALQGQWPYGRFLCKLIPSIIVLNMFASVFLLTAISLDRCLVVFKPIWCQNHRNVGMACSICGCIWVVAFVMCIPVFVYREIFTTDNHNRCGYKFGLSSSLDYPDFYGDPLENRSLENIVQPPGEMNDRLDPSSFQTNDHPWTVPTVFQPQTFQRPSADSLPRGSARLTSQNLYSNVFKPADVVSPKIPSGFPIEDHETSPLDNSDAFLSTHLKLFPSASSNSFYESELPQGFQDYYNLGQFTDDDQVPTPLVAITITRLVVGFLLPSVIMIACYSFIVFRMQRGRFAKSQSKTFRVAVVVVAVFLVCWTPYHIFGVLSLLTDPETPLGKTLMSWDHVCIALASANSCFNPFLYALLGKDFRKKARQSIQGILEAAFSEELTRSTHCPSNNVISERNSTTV
C3aR (Homo sapiens, UniProt Q16581), sequence (P63096 2-354 partner limits assumed): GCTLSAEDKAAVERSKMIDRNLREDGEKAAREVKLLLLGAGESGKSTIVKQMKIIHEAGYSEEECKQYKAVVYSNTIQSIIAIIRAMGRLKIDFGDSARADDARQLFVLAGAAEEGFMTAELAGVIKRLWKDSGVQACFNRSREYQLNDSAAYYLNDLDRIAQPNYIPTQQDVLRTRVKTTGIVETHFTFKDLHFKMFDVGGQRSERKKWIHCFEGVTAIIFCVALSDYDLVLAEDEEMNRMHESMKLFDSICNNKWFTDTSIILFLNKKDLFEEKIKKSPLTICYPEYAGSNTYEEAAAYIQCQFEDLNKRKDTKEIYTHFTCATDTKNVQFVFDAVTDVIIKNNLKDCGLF
C3aR (Homo sapiens, UniProt Q16581), sequence (P62873 2-340 partner limits assumed): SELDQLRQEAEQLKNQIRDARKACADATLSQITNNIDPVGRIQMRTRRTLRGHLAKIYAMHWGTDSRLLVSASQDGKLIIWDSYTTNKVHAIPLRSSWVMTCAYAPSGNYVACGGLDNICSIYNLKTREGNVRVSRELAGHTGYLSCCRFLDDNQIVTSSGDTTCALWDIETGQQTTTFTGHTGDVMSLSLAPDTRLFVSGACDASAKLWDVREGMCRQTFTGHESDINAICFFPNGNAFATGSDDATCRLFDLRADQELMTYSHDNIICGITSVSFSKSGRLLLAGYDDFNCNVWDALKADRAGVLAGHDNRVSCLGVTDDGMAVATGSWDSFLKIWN
C3aR (Homo sapiens, UniProt Q16581), sequence (P59768 2-68 partner limits assumed): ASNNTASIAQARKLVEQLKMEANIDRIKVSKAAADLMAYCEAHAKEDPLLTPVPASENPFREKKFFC

## Cc1cc(C(c2ccc(Cl)cc2)c2ccc(Cl)cc2)sc1C(=O)N[C@@H](CCCNC(=N)N)C(=O)O [JR14a, reference compound]
C3aR L82^2.64A; [4]
  Mean Diff. of pIC50, WT vs. L82A: -0.402
C3aR L82^2.64A; IC50, L82^2.64A, dose-response plot
  IC50: 2.07 nM
C3aR L82^2.64A; L82A, Log[JR14a (M)] -6, single replicates, read-out: cAMP response (% Forskolin)
  remaining activity at 1 µM: 9.36%
C3aR L82^2.64A; L82A, Log[JR14a (M)] -7, single replicates, read-out: cAMP response (% Forskolin)
  remaining activity at 0.1 µM: 8.92%
C3aR L82^2.64A; L82A, Log[JR14a (M)] -8, single replicates, read-out: cAMP response (% Forskolin)
  remaining activity at 0.01 µM: 34.1%
C3aR L82^2.64A; L82A, Log[JR14a (M)] -9, single replicates, read-out: cAMP response (% Forskolin)
  remaining activity at 0.001 µM: 62.6%
C3aR L82^2.64A; L82A, Log[JR14a (M)] -10, single replicates, read-out: cAMP response (% Forskolin)
  remaining activity at 0.0001 µM: 93.2%
C3aR L82^2.64A; L82A, Log[JR14a (M)] -11, single replicates, read-out: cAMP response (% Forskolin)
  remaining activity at 10 pM: 106%
C3aR L82^2.64A; L82^2.64A relative to WT C3aR
  ΔpIC50 ± SE of Diff.: 0.40 ± 0.14
C3aR L82^2.64A; pIC50 (Replicate), L82^2.64A, individual replicates
  IC50: 1.55 nM and 3.39 nM and 1.66 nM
C3aR L82^2.64A; pIC50 ± SEM (Mean), L82^2.64A, mean of independent experiments
  IC50: 2.04 nM
C3aR R161^ECL2A; [4]
  Mean Diff. of pIC50, WT vs. R161A: -0.085
C3aR R161^ECL2A; IC50, R161^ECL2A, dose-response plot, Not calculated = entire loss of signaling
  IC50: 2.28 nM
C3aR R161^ECL2A; R161A, Log[JR14a (M)] -6, single replicates, read-out: cAMP response (% Forskolin)
  remaining activity at 1 µM: 11.8%
C3aR R161^ECL2A; R161A, Log[JR14a (M)] -7, single replicates, read-out: cAMP response (% Forskolin)
  remaining activity at 0.1 µM: 13.6%
C3aR R161^ECL2A; R161A, Log[JR14a (M)] -8, single replicates, read-out: cAMP response (% Forskolin)
  remaining activity at 0.01 µM: 41.3%
C3aR R161^ECL2A; R161A, Log[JR14a (M)] -9, single replicates, read-out: cAMP response (% Forskolin)
  remaining activity at 0.001 µM: 79.3%
C3aR R161^ECL2A; R161A, Log[JR14a (M)] -10, single replicates, read-out: cAMP response (% Forskolin)
  remaining activity at 0.0001 µM: 99.1%
C3aR R161^ECL2A; R161A, Log[JR14a (M)] -11, single replicates, read-out: cAMP response (% Forskolin)
  remaining activity at 10 pM: 108%
C3aR R161^ECL2A; R161^ECL2A relative to WT C3aR
  ΔpIC50 ± SE of Diff.: 0.09 ± 0.04
C3aR R161^ECL2A; R161^ECL2 to Ala, relatively mild effect on downstream signaling
  decrease in IC50 values vs WT: < 10 fold
C3aR R161^ECL2A; pIC50 (Replicate), R161^ECL2A, individual replicates
  IC50: 3.72 nM and 1.86 nM and 1.74 nM
C3aR R340^5.42A; [4]
  Mean Diff. of pIC50, WT vs. R340A: 2.282
C3aR R340^5.42A; IC50, R340^5.42A, dose-response plot
  IC50: 478 nM
C3aR R340^5.42A; R340A, Log[JR14a (M)] -6, single replicates, read-out: cAMP response (% Forskolin)
  remaining activity at 1 µM: 78.9%
C3aR R340^5.42A; R340A, Log[JR14a (M)] -7, single replicates, read-out: cAMP response (% Forskolin)
  remaining activity at 0.1 µM: 99.9%
C3aR R340^5.42A; R340A, Log[JR14a (M)] -10, single replicates, read-out: cAMP response (% Forskolin)
  remaining activity at 0.0001 µM: 105%
C3aR R340^5.42A; R340A, Log[JR14a (M)] -11, single replicates, read-out: cAMP response (% Forskolin)
  remaining activity at 10 pM: 104%
C3aR R340^5.42A; R340^5.42A relative to WT C3aR
  ΔpIC50 ± SE of Diff.: -2.28 ± 0.14
C3aR R340^5.42A; pIC50 ± SEM (Mean), R340^5.42A, mean of independent experiments
  IC50: 537 nM
C3aR [1]
  IC50 values: nanomolar range
C3aR [2]
  forskolin-induced cAMP production: inhibited forskolin-induced cAMP production in a dose-dependent manner
C3aR [3]
  activity at C3aR: potent agonist
